Experiments:
[1] = biological target: human full length PIK3CA wild-type (p110α/p85α) (Homo sapiens (Human), UniProt P42336); experiment: PI3K-alpha kinase (PIK3CA) activity, wild-type, Transcreener ADP2 FI assay; settings: PI3K-α (PIK3CA) biochemical
Method: (§1) PI3K-Alpha Kinase (PIK3CA) Activity, Wild-Type and H1047R Mutant and Determining IC50 Values for Inhibitors
(§2) Recombinant, catalytically active human full length PIK3KA Wild-type and H1047R mutant were purchased as 1:1 complex of N-terminal 6× his tagged p110 ? (catalytic) and untagged p85 ? (regulatory subunit) from EMD Millipore Sigma (cat. no. 14-602M and 14-792M, respectively). The enzyme stocks were diluted to 5× stocks in buffer (20 mM HEPES pH 7.4, 100 mM NaCl, 0.5 mM EGTA, 0.01% triton-x-100) just before use. PIP2diC8 (Avanti Polar Lipids Inc., cat. no. 850185) or phosphoinositol-4,5-bisphosphate with phosphoserine (PIP2:PS) membrane (Thermo Fisher Scientific, cat. no. PV5100) was used as lipid substrates. PIP2diC8 lyophilized powder and PIP2:PS (1:19) membrane stock (1 mM in PIP2) were separately dissolved in milliQ water to a concentration of 250 uM and stored in −20° C. 10 mM stocks of compounds were serially diluted (3×) in neat DMSO and stored in a dessicator at room temperature. 5× compound stocks in 25% DMSO were prepared fresh from neat DMSO stocks.
(§3) Wild-type (WT) and H1047R mutant protein, along with buffer components (except ATP), were incubated with or without compound at 27° C. for 1 h. After incubation, the reaction was initiated by the addition of 5 uL of 125 uM ATP. A typical assay mixture (25 uL) comprised 40 mM HEPES buffer, pH 7.4, 25 mM MgCl2, 0.01% v/v triton-X-100, 5% v/v DMSO, 20 mM NaCl, 1-5 nM wt or H1047R, 25 uM ATP, and 50 uM PIP2diC8 or PIP2 in membrane. The reaction was allowed to proceed until about […] (2.5 uM ADP) after which time, 10 uL of reaction mixture was quenched with 25 uL of transcreener reagent (Transcreener ADP2 FI assay kit, BellBrook labs, Cat. No. 3013). The contents were incubated at rt for 1 h and fluorescence was measured using a plate reader (Paradigm, Molecular Devices). The same assay was also run at pH 6.0 or 6.4 using MOPS buffer (Fisher BioReagents, CAS 1132-61-2). A calibration curve was generated under identical buffer conditions with varying ADP amounts. Using that, the observed fluorescence was converted to uM ADP. A plot between [ADP] and log[I] yielded the dose-response curves that enabled the calculation of IC50s.

[2] = biological target: human full length PIK3CA H1047R mutant (p110α/p85α) (Homo sapiens (Human), UniProt P42336, H1047R); experiment: PI3K-alpha kinase (PIK3CA) activity, H1047R mutant, Transcreener ADP2 FI assay; settings: PI3K-α (PIK3CA) biochemical
Method: as §1, §2, §3

Chain of human full length PIK3CA H1047R mutant (p110α/p85α) (P42336 whole entry H1047R): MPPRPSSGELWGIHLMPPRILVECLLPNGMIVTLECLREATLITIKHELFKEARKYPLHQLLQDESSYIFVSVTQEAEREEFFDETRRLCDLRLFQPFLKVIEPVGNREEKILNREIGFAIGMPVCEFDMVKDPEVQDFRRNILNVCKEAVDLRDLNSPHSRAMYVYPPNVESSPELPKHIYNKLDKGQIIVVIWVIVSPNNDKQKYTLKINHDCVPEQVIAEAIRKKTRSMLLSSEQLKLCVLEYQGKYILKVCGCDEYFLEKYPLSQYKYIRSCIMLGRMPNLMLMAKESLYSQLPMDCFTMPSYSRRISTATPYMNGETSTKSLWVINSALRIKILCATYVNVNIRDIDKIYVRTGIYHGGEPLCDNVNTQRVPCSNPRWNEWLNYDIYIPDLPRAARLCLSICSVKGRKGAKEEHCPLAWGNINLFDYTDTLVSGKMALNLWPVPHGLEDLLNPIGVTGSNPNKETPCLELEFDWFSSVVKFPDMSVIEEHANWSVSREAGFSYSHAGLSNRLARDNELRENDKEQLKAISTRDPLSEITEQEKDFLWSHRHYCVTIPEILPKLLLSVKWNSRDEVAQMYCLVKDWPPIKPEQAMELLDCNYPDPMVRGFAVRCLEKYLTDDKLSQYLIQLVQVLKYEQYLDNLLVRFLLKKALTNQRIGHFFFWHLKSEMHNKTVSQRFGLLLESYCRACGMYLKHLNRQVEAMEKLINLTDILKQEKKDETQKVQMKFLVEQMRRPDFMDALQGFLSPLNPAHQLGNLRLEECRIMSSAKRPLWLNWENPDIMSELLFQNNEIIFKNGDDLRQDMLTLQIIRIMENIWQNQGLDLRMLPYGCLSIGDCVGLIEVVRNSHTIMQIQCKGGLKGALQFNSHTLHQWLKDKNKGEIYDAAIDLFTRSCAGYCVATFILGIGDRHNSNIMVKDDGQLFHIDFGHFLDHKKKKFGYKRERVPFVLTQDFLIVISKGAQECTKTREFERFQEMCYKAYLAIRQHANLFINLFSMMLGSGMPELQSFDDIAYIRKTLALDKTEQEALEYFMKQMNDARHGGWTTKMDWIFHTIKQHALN
Chain of human full length PIK3CA H1047R mutant (p110α/p85α) (P27986 whole entry partner): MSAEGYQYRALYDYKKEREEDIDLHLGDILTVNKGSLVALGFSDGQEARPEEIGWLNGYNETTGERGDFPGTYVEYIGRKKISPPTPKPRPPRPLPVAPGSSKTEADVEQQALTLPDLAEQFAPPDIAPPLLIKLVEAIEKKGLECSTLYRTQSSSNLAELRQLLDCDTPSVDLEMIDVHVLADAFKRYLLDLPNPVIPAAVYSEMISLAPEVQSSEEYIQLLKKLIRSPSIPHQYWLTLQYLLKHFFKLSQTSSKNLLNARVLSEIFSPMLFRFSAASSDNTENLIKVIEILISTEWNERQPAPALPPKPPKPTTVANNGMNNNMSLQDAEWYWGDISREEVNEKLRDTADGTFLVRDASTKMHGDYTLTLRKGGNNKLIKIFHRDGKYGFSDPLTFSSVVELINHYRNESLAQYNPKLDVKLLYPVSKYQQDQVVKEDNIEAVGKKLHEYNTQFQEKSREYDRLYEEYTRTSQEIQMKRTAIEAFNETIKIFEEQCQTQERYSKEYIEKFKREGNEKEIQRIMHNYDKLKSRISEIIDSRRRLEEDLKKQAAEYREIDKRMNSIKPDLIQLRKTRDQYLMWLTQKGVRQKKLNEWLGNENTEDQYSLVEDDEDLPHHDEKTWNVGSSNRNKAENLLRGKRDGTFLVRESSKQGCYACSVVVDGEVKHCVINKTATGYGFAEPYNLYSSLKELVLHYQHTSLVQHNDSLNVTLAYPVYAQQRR
Chain of human full length PIK3CA wild-type (p110α/p85α) (P42336 whole entry): as the sequence (P42336 whole entry H1047R) above, with R1047H counted along it
Chain of human full length PIK3CA wild-type (p110α/p85α) (P27986 whole entry partner): as the sequence (P27986 whole entry partner) above

| IC50 [1] | IC50 [2] | Structure (SMILES) |
| --- | --- | --- |
| < 0.5 µM | < 0.5 µM | Cc1cc(C(C)Nc2ccc(Cl)nc2C(=O)O)c2oc(N3CCC4(CC3)CC4)cc(=O)c2c1 (stereo not shown) [Example 298, 3-[1-[2-(6-Azaspiro[2.5]octan-6-yl)-6-methyl-4-oxo-chromen-8-yl]ethylamino]-6-chloro-pyridine-2-carboxylic acid] |
| > 10 µM | < 0.5 µM | Cc1cc(C(C)Nc2ccccc2C(=O)O)c2oc(N3CCC(C)CC3)cc(=O)c2c1 (stereo not shown) [Example 370, 2-[1-[6-Methyl-2-(4-methyl-1-piperidyl)-4-oxo-chromen-8-yl]ethylamino]benzoic acid] |
| < 0.5 µM | < 0.5 µM | Cc1cc([C@@H](C)Nc2ccc(Cl)nc2C(=O)O)c2oc(N3CCC(C)(C)CC3)cc(=O)c2c1 [Example 256, 6-Chloro-3-[[(1R)-1-[2-(4,4-dimethyl-1-piperidyl)-6-methyl-4-oxo-chromen-8-yl]lethyl]amino]pyridine-2-carboxylic acid] |
| < 0.5 µM | < 0.5 µM | Cc1cc([C@@H](C)Nc2ccc(Cl)nc2C(=O)O)c2oc(N3Cc4ccc(F)cc4C3)c(C)c(=O)c2c1 [Example 308, 6-Chloro-3-[[(1R)-1-[2-(5-fluoroisoindolin-2-yl)-3,6-dimethyl-4-oxo-chromen-8-yl]ethyl]amino]pyridine-2-carboxylic acid] |
| > 10 µM | – | Cc1cc(C(C)Nc2ccccc2C(=O)O)c2oc(N3CCCC4(CNC(=O)C4)C3)cc(=O)c2c1 (stereo not shown) [Example 61, 2-[1-[6-Methyl-4-oxo-2-(3-oxo-2,7-diazaspiro[4.5]decan-7-yl)chromen-8-yl]ethylamino]benzoic acid] |
| > 10 µM | – | Cc1cc(C(C)Nc2ccsc2C(=O)O)c2oc(N3CCC(C)(C)CC3)cc(=O)c2c1 (stereo not shown) [Example 39, 3-[1-[2-(4,4-Dimethyl-1-piperidyl)-6-methyl-4-oxo-chromen-8-yl]ethylamino]thiophene-2-carboxylic acid] |
| < 0.5 µM | < 0.5 µM | Cc1cc(C(C)Nc2ccc(Cl)nc2C(=O)O)c2oc(N3CCCCC3)c(C)c(=O)c2c1 (stereo not shown) [Example 305, 6-Chloro-3-[1-[3,6-dimethyl-4-oxo-2-(1-piperidyl)chromen-8-yl]ethylamino]pyridine-2-carboxylic acid] |
| < 0.5 µM | < 0.5 µM | Cc1cc([C@@H](C)Nc2ccccc2C(=O)O)c2oc(N3CC[C@H](c4ccccc4)C3)c(C)c(=O)c2c1 [Example 286, 2-[[(1R)-1-[3,6-dimethyl-4-oxo-2-[(3R)-3-phenylpyrrolidin-1-yl]chromen-8-yl]ethyl]amino]benzoic acid] |
| > 10 µM | – | Cc1cc(C(C)Nc2ccccc2C(=O)O)c2oc(N3CCn4cnnc4C3)cc(=O)c2c1 (stereo not shown) [Example 163, 2-[1-[2-(6,8-Dihydro-5H-[1,2,4]triazolo[4,3-a]pyrazin-7-yl)-6-methyl-4-oxo-chromen-8-yl]ethylamino]benzoic acid] |
| > 10 µM | > 10 µM | Cc1cc(C(C)Nc2cc3c(cc2C(=O)O)OCO3)c2oc(N3CCC(C)(C)CC3)cc(=O)c2c1 (stereo not shown) [Example 33, 6-[1-[2-(4,4-Dimethyl-1-piperidyl)-6-methyl-4-oxo-chromen-8-yl]ethylamino]-1,3-benzodioxole-5-carboxylic acid] |

Further lines, the molecule ahead of its results:

| Structure (SMILES) | IC50 [1] | IC50 [2] |
| --- | --- | --- |
| Cc1cc(C(C)Nc2ccccc2C(=O)O)c2oc(N3CC(Cl)C3)cc(=O)c2c1 (stereo not shown) [Example 63, 2-[1-[2-(3-Chloroazetidin-1-yl)-6-methyl-4-oxo-chromen-8-yl]ethylamino]benzoic acid] | > 10 µM | < 0.5 µM |
| Cc1cc(C(C)Nc2c(Cl)cccc2C(=O)O)c2oc(N3CCC(C)(C)CC3)cc(=O)c2c1 (stereo not shown) [Example 11, 3-Chloro-2-[1-[2-(4,4-dimethyl-1-piperidyl)-6-methyl-4-oxo-chromen-8-yl]ethylamino]benzoic acid] | > 10 µM | > 10 µM |
| Cc1cc([C@@H](C)Nc2ccc(Cl)nc2C(=O)O)c2oc(N3CCC4(CC3)CC4)c(C)c(=O)c2c1 [Example 306, 3-[[(1R)-1-[2-(6-Azaspiro[2.5]octan-6-yl)-3,6-dimethyl-4-oxo-chromen-8-yl]ethyl]amino]-6-chloro-pyridine-2-carboxylic acid] | < 0.5 µM | < 0.5 µM |
| Cc1cc(C(C)Nc2cc(F)ccc2[N+](=O)[O-])c2oc(N3CCC(C)(C)CC3)cc(=O)c2c1 (stereo not shown) [Example 8, 2-(4,4-Dimethyl-1-piperidyl)-8-[1-(5-fluoro-2-nitro-anilino)ethyl]-6-methyl-chromen-4-one] | > 10 µM | > 10 µM |
| Cc1cc(C(C)Nc2ccc(B(O)O)cc2C(=O)O)c2oc(N3CCC(C)(C)CC3)cc(=O)c2c1 (stereo not shown) [Example 357, 5-Borono-2-[1-[2-(4,4-dimethyl-1-piperidyl)-6-methyl-4-oxo-chromen-8-yl]ethylamino]benzoic acid] | > 10 µM | > 10 µM |
| CC(Nc1ccc(Cl)nc1C(=O)O)c1cc(F)cc2c(=O)cc(N3Cc4ccccc4C3)oc12 (stereo not shown) [Example 400, 6-Chloro-3-[1-(6-fluoro-2-isoindolin-2-yl-4-oxo-chromen-8-yl)ethylamino]pyridine-2-carboxylic acid 2,2,2-trifluoroacetic acid] | < 0.5 µM | < 0.5 µM |
| Cc1cc([C@@H](C)Nc2ccc(Cl)nc2C(=O)O)c2oc(N3Cc4ccc5c(c4C3)OCO5)cc(=O)c2c1 [Example 301, 6-Chloro-3-[[(1R)-1-[2-(6,8-dihydro-[1,3]dioxolo[4,5-e]isoindol-7-yl)-6-methyl-4-oxo-chromen-8-yl]ethyl]amino]pyridine-2-carboxylic acid] | < 0.5 µM | < 0.5 µM |
| COc1cc(C(=O)O)c(NC(C)c2cc(C)cc3c(=O)cc(N4CCC(C)(C)CC4)oc23)cc1F (stereo not shown) [Example 1, 2-[1-[2-(4,4-Dimethyl-1-piperidyl)-6-methyl-4-oxo-chromen-8-yl]ethylamino]-4-fluoro-5-methoxy-benzoic acid] | > 10 µM | – |
| Cc1cc([C@@H](C)Nc2ccc(Cl)nc2C(=O)O)c2oc(N3CCC(F)(F)CC3)c(C)c(=O)c2c1 [Example 310, 6-Chloro-3-[[(1R)-1-[2-(4,4-difluoro-1-piperidyl)-3,6-dimethyl-4-oxo-chromen-8-yl]ethyl]amino]pyridine-2-carboxylic acid] | < 0.5 µM | < 0.5 µM |
| Cc1cc([C@@H](C)Nc2ccccc2C(=O)O)c2oc(N3CC(C)(c4ccccc4)C3)c(C)c(=O)c2c1 [Example 274, 2-[[(1R)-1-[3,6-Dimethyl-2-(3-methyl-3-phenyl-azetidin-1-yl)-4-oxo-chromen-8-yl]ethyl]amino]benzoic acid] | < 0.5 µM | < 0.5 µM |
| Cc1cc(C(C)Nc2ccccc2C(=O)O)c2oc(N3CC(N(C)C)C3)cc(=O)c2c1 (stereo not shown) [Example 68, 2-[1-[2-[3-(Dimethylamino)azetidin-1-yl]-6-methyl-4-oxo-chromen-8-yl]ethylamino]benzoic acid] | > 10 µM | – |
| Cc1cc(C(C)Nc2ccccc2C(=O)O)c2oc(NC34CC5CC(CC(CO)(C5)C3)C4)cc(=O)c2c1 (stereo not shown) [Example 169] | > 10 µM | – |
| CCNc1cc(=O)c2cc(C)cc(C(C)Nc3ccccc3C(=O)O)c2o1 (stereo not shown) [Example 126, 2-[1-[2-(Ethylamino)-6-methyl-4-oxo-chromen-8-yl]ethylamino]benzoic acid] | > 10 µM | – |
| Cc1cc([C@@H](C)Nc2ccc(Cl)nc2C(=O)O)c2oc(N3Cc4ccccc4C3)cc(=O)c2c1 [Example 300, 6-Chloro-3-[[(1R)-1-(2-isoindolin-2-yl-6-methyl-4-oxo-chromen-8-yl)ethyl]amino]pyridine-2-carboxylic acid] | < 0.5 µM | < 0.5 µM |
| Cc1cc(C(C)Nc2ccccc2C(=O)O)c2oc(NCC(C)C)cc(=O)c2c1 (stereo not shown) [Example 77, 2-[1-[2-(Isobutylamino)-6-methyl-4-oxo-chromen-8-yl]ethylamino]benzoic acid] | > 10 µM | < 0.5 µM |
| CNC(=O)C1CCN(c2cc(=O)c3cc(C)cc(C(C)Nc4ccccc4C(=O)O)c3o2)CC1 (stereo not shown) [Example 371, 2-[1-[6-Methyl-2-[4-(methylcarbamoyl)-1-piperidyl]-4-oxo-chromen-8-yl]ethylamino]benzoic acid] | > 10 µM | – |
| Cc1cc(C(C)N(C)c2ccccc2C(=O)O)c2oc(N3CCC(C)(C)CC3)cc(=O)c2c1 (stereo not shown) [Example 5, 2-[1-[2-(4,4-Dimethyl-1-piperidyl)-6-methyl-4-oxo-chromen-8-yl]ethyl-methyl-amino]benzoic acid] | > 10 µM | > 10 µM |

From patent publication US20230286960A1, “ALLOSTERIC CHROMENONE INHIBITORS OF PHOSPHOINOSITIDE 3-KINASE (PI3K) FOR THE TREATMENT OF DISEASE” (Petra Pharma Corporation, priority 2020, published 2023)
